The source made the active and inactive calls. No rule for the calls is given here.
Legend:
[1] = concentration-response yeast growth inhibition under permissive conditions, counter-assay for yeast lifespan-shortening chemical project (AID 850); conditions: Saccharomyces cerevisiae growth inhibition, permissive control, measured here: maximum growth inhibition, stronger effect = higher value;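 also: growth read as optical density after one day of incubation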
[2] = test system: Saccharomyces cerevisiae growth inhibition, permissive control; assay: as above

Row | SMILES | IC50 [2] | inhibition ([1]; at 50 µM) [%] | also measured
1 | CCCCn1c(/N=C/c2c[nH]c3ccccc23)nc2ccccc21 | > 100 µM (inactive) | – | inhibition ([1]; at 0.781 µM): 7.75%
2 | COc1ccc(S(=O)(=O)n2oc(=O)cc2-c2ccccc2)cc1OC | > 100 µM (inactive) | – | inhibition ([1]; at 1.563 µM): 9.27%
3 | O=C(O)c1ccccc1C(=O)NNc1ccc(Cl)cc1 | 7.11 µM | 96.5 | –
4 | COc1cccc2sc(Nc3nc(-c4ccccn4)cs3)nc12 | 20 µM | 77.8 | –
5 | Cc1cccc(Nc2nc(-c3ccccn3)cs2)n1 | 13.3 µM | – | inhibition ([1]; at 25 µM): 63.1%
6 | Nc1c(C(=O)NCCc2ccccc2)c2nc3ccccc3nc2n1CCN1CCOCC1 | 42.4 µM | 99.8 | –
7 | C=C(C)COc1ccc(-c2[nH]ncc2Oc2ccccc2OC)c(O)c1 | > 100 µM (inactive) | – | inhibition ([1]; at 1.563 µM): -1.35%
8 | COc1ccc2c(c1)[nH]c1c(Cl)ncnc12 | > 100 µM (inactive) | – | inhibition ([1]; at 0.195 µM): 21.3%
9 | Cc1ccc(/C(N)=N/OC(=O)c2ccc(Cl)cc2Cl)cc1 | 19.8 µM | 98.8 | –
10 | CCN1/C(=C/c2ccc3ccc(C)cc3[n+]2CC)Sc2ccccc21 | 21.7 µM | 92.9 | –
11 | COc1cc(CNCCN2CCOCC2)ccc1OCc1cccc(Cl)c1 | > 100 µM (inactive) | – | inhibition ([1]; at 25 µM): 12.3%
12 | CC1(C)Cc2c(C#N)c(N)sc(=S)c2CO1 | > 100 µM (inactive) | – | inhibition ([1]; at 12.5 µM): 23.1%
13 | O=c1cnn([C@@H]2O[C@H](CO)[C@@H](O)[C@H]2O)c(=O)[nH]1 | 16.6 µM | 68.7 | –
14 | CCCn1c(Nc2nc3ccccc3n2C)nc2ccccc21 | 45.1 µM | 97.9 | –
15 | CCOc1ccccc1C1CC(c2ccc(Br)cc2)Nc2nc(N)nn21 (stereo unspecified) | > 100 µM (inactive) | – | inhibition ([1]; at 0.781 µM): 10.2%
16 | Brc1ccccc1-c1nnc(CSc2nnc3sc4ccccc4n23)o1 | > 100 µM (inactive) | – | inhibition ([1]; at 6.25 µM): 13.3%
17 | CCCCCCCCCCCCCCCC(O)C(N)CO (stereo unspecified) | 24.8 µM | 99.2 | –
18 | CCCCCCCCCCn1c2c(c(=N)c3c1CCC3)CCC2 | 12 µM | 100 | –
19 | C=CCNC1=C(Cl)C(=O)c2ccccc2C1=O | > 100 µM (inactive) | – | inhibition ([1]; at 25 µM): 18.3%
20 | COc1ccccc1OCCCc1c(C)n[nH]c1C | 5.76 µM | 100 | –
21 | COc1ccc(OC)c(C2CC(=O)N3CN(c4cccc(Cl)c4)CSC3=C2C#N)c1 (stereo unspecified) | > 100 µM (inactive) | – | inhibition ([1]; at 25 µM): 15.2%

Row | SMILES | IC50 [2] | inhibition ([1]; at 50 µM) [%] | also measured
22 | S=C(NCc1ccc(Cl)cc1Cl)NC1CCCCC1 | > 100 µM (inactive) | 22.8 | –
23 | N/C(Cc1ccc(Cl)cc1)=N\OC(=O)c1cccc2ccccc12 | 44.3 µM | 99.6 | –
24 | Oc1c(Cl)cc(Cl)c2c1NCCC2 | 15.9 µM | 99.8 | –
25 | CCCCOC(=O)Sc1nc2ccccc2o1 | 14.5 µM | 101 | –
26 | N#C/C(=C\c1ccc([N+](=O)[O-])o1)c1nc2ccccc2[nH]1 | > 100 µM (inactive) | – | inhibition ([1]; at 6.25 µM): 21.4%
27 | OC(CN1CCN(c2ccccn2)CC1)Cn1c2ccc(Cl)cc2c2cc(Cl)ccc21 (stereo unspecified) | 30.9 µM | 98.9 | –
28 | CCc1ccc(C2NC(=S)NC3=C2C(=O)N(c2ccccc2OC)C(c2ccc(CC)cc2)N3)cc1 (stereo unspecified) | > 100 µM (inactive) | – | inhibition ([1]; at 0.781 µM): 2.18%
29 | CC(NC(=O)/C(C#N)=C/c1ccc(Cl)c([N+](=O)[O-])c1)c1ccccc1 (stereo unspecified) | > 100 µM (inactive) | 15 | –
30 | Cn1cccc1Cc1nnc(SCC(=O)Nc2nccs2)n1CCc1ccccc1 | > 100 µM (inactive) | – | inhibition ([1]; at 6.25 µM): 29%
31 | CC(Oc1ccc(Cl)cc1Cl)C(=O)NC1=NN(c2ccccc2)C(=O)C1 (stereo unspecified) | 16.6 µM | 98.6 | –
32 | Clc1ccc(N=c2ssnc2Cl)cc1 | 32.6 µM | 66.3 | –
33 | O=S(=O)(NC1CC2CCC1C2)c1ccc(Br)s1 (stereo unspecified) | 1.28 µM | – | inhibition ([1]; at 12.5 µM): 99%
34 | c1ccc(-c2nc3nonc3nc2-c2ccccc2)cc1 | > 100 µM (inactive) | – | inhibition ([1]; at 1.563 µM): -1.92%
35 | S=C(Nc1ccc(Oc2ccccc2)cc1)NC1CCCCCC1 | > 100 µM (inactive) | – | inhibition ([1]; at 0.391 µM): 19.9%
36 | CCOC(=O)c1cnc(-n2nc(C)cc2C)nc1NCCc1ccccc1 | > 100 µM (inactive) | 17.4 | –
37 | O=C(c1ccc(C(=O)N2CCCc3ccccc32)s1)N1CCCc2ccccc21 | 34.1 µM | 87 | –
38 | Cc1ccc(-c2nn3c(C)nnc3s2)cc1NC(=O)c1ccc(OC(C)C)cc1 | > 100 µM (inactive) | – | inhibition ([1]; at 0.098 µM): 17.3%
39 | Cc1ccc(COc2ccc(Br)cc2/C=N/O)cc1 | > 100 µM (inactive) | – | inhibition ([1]; at 0.098 µM): -1.78%
40 | CC1=NOC(=O)/C1=C\c1ccc(-c2ccc(Cl)cc2Cl)o1 | 32.3 µM | 80.5 | –
41 | Cc1ccccc1N=Cc1cccc(O)c1O | 7.59 µM | 99.2 | –
42 | Nc1c(Cl)ncnc1N/N=C/c1ccccn1 | 8.45 µM | 99.2 | –

Row | SMILES | IC50 [2] | inhibition ([1]; at 50 µM) [%] | also measured
43 | Cc1nnc(NC(=O)CSc2nnc(Cc3cccn3C)n2-c2ccccc2)s1 | > 100 µM (inactive) | – | inhibition ([1]; at 0.781 µM): 11.8%
44 | Nc1[nH]c(=O)ncc1F | 17.5 µM | 84.8 | –
45 | CN1C(=O)C(O)(CC(=O)c2ccccc2O)c2cc(Br)ccc21 (stereo unspecified) | > 100 µM (inactive) | – | inhibition ([1]; at 0.195 µM): 17.2%
46 | CCCCCCCCCCCCCCCC[n+]1ccc(/C=N/O)cc1 | 1.07 µM | 100 | –
47 | O=C(Oc1ccc(Cl)c2cccnc12)c1ccco1 | 12.4 µM | 100 | –
48 | c1ccc(-c2csc3nnc(SCc4ccc5c(c4)OCO5)n23)cc1 | > 100 µM (inactive) | – | inhibition ([1]; at 0.781 µM): 9.45%
49 | COc1ccc(NCc2nc3ccccc3n2CCOc2ccc(C)cc2)cc1 | 42.2 µM | 52.7 | –
50 | Cc1nn2c(-c3ccco3)nnc2c2ccccc12 | > 100 µM (inactive) | – | inhibition ([1]; at 25 µM): 14.3%
51 | Cc1noc2ncnc(Sc3ccccc3Cl)c12 | 39.5 µM | 69 | –
52 | COc1ccccc1NC(=O)Cc1noc(CSc2cccc[n+]2[O-])n1 | 21.9 µM | 97.7 | –
53 | CC(=O)NC(c1cccs1)c1cc([N+](=O)[O-])c2cccnc2c1O (stereo unspecified) | > 100 µM (inactive) | 17.1 | –
54 | N=c1n(CCN2CCOCC2)c2ccccc2n1CC(=O)c1ccc(Cl)c(Cl)c1 | 35.4 µM | 61.4 | –
55 | CNC(=O)Oc1cccc(-c2cn3cc(OC(=O)NC)ccc3n2)c1 | 6.45 µM | 97.6 | –
56 | O=C1Cc2ccccc2C(=O)N1CCc1ccccc1 | > 100 µM (inactive) | – | inhibition ([1]; at 0.781 µM): 20.7%
57 | Oc1c(I)cc(I)c2cccnc12 | 17.1 µM | 74.8 | –
58 | Cc1ccc(-c2nnc3ccc(SC(C)C(=O)O)nn23)cc1 (stereo unspecified) | > 100 µM (inactive) | – | inhibition ([1]; at 6.25 µM): 10.5%
59 | Cc1nc2cc3ccccc3cc2c(=O)[nH]1 | > 100 µM (inactive) | – | inhibition ([1]; at 0.781 µM): 13.9%
60 | OC(Cn1cncn1)(c1ccccc1)c1ccccc1 | 6.82 µM | – | inhibition ([1]; at 12.5 µM): 90.3%
61 | Clc1ccc(COC(Cn2ccnc2)c2ccc(Cl)cc2Cl)cc1 (stereo unspecified) | 0.705 µM | 100 | –
62 | Cc1ccc2c(c1)C(=NC1CCCCC1)c1cc3ccccc3nc1-2 | > 100 µM (inactive) | – | inhibition ([1]; at 12.5 µM): 22.8%
63 | Cc1ccc(NC(=O)ON=C2CCCC2)cc1 | 15.2 µM | 99.4 | –

Row | SMILES | IC50 [2] | inhibition ([1]; at 50 µM) [%] | also measured
64 | CCCCSc1nc(C)c(C(C)=O)cc1C#N | > 100 µM (inactive) | – | inhibition ([1]; at 12.5 µM): 3.31%
65 | CCSc1nc(N)nc(-c2cccs2)c1C#N | 35.2 µM | 70.4 | –
66 | CC(C)(Oc1ccc(Cl)cc1)C(=O)NC1=NN(c2ccccc2)C(=O)C1 | 21.5 µM | 88.3 | –
67 | Oc1ccc(Cl)cc1Cc1cc(Cl)ccc1O | 25.8 µM | 99 | –
68 | Cc1ccc(/C=C2\C(=O)Nc3ccccc32)o1 | > 100 µM (inactive) | – | inhibition ([1]; at 25 µM): 26.6%
69 | COc1cc(C(=O)NC(=S)NNC(=O)c2cnccn2)cc(OC)c1OC | 23.3 µM | 59.3 | –
70 | O=c1[nH]c(Nc2ccccc2)cc2ccccc12 | > 100 µM (inactive) | 25.9 | –
71 | c1ccc(-c2nc(-n3ccnc3)nc(-n3ccnc3)n2)cc1 | > 100 µM (inactive) | – | inhibition ([1]; at 1.563 µM): 17.9%
72 | COc1ccc2nc(/N=C(\N)NC(=O)Nc3ccccc3)nc(C)c2c1 | 33.8 µM | 73.7 | –
73 | CC1/C(=N/O)CC(c2ccccc2)N(C)C1c1ccccc1 (stereo unspecified) | < 0.098 µM | – | inhibition ([1]; at 25 µM): 94.8%
74 | Fc1ccc(-c2ccc(-c3nn4c(-c5ccco5)nnc4s3)o2)cc1 | > 100 µM (inactive) | – | inhibition ([1]; at 6.25 µM): 13.4%
75 | Cc1nc(Nc2ccc(Cl)c(Cl)c2)sc1C(=O)Nc1ccccc1 | > 100 µM (inactive) | 15.6 | –
76 | Cc1ccc(-n2c(C)cc(C(=O)COC(=O)c3ccc[nH]c3=O)c2C)cc1 | 27.7 µM | 67 | –
77 | O=[N+]([O-])c1ccc(N/N=C2/CCCCC2c2ccccn2)cc1 (stereo unspecified) | 1.94 µM | 98.4 | –
78 | Cn1c(SCC(=O)Nc2ccccc2)nc(O)cc1=O | 33.2 µM | 76.2 | –
79 | Cn1c(-c2ccco2)nc2cc3ccccc3cc21 | 49.4 µM | 52.4 | –
80 | CCC(C)NC(=O)CS(=O)Cc1nc(-c2ccccc2C)oc1C (stereo unspecified) | > 100 µM (inactive) | – | inhibition ([1]; at 1.563 µM): 23.5%
81 | C/C(=N\NC(=O)c1ccc(CSc2cccc3cccnc23)cc1)C1CCCCC1 | 29.7 µM | 93.4 | –
82 | O=C(Oc1c(Cl)cc(Cl)c2cccnc12)c1cccc([N+](=O)[O-])c1 | 1.44 µM | – | inhibition ([1]; at 12.5 µM): 99.4%
83 | CC1CCCC2(C1)NC(=S)c1c(sc3c1CCCC3)N2 (stereo unspecified) | > 100 µM (inactive) | – | inhibition ([1]; at 0.781 µM): 10.2%

From PubChem BioAssay AID850 (SRMLSC, 2007)
